The test system of data set [1] is cultured bovine parathyroid cells. To be noted: cited from earlier work.
Data set [2] has as its system serum PTH. To be noted: uremic rats; cited from earlier work.
In data set [3] the test system is serum PTH. To be noted: uremic dogs; cited from earlier work.
Data set [4] is described as follows: Phase 2B double-blind, randomized, placebo-controlled study in hemodialysis patients: safety. It counts as in vivo, human. The method, then:
FIG. 9. Study enrollees exceeding safety threshold values for iPTH, Ca, and P.
FIG. 10. Number of adverse events (AEs) and serious adverse events (SAEs) for study enrollees.
(§1) Subjects were administered DP001 (2MD) or placebo accordingly the study schema of FIG. 3. Subject disposition is illustrated in FIG. 4. As indicated, 129 subject were screened. Of these, 62 were enrolled and 67 were screen failures. Of the 62 enrollees, 28 were administered a placebo and 34 were administered DP001 (440 ng, 3×/wk for up to 12 weeks). Of the 28 enrollees who were administered the placebo, 22 completed the 12 week study and 6 discontinued for reasons illustrated. Of the 34 enrollees who were administered DP001, 31 completed the 12 week study and 3 discontinued for reasons illustrated.
The remaining 8 subjects were only dose-adjusted downward, indicating a starting dose lower than 440 ng would have been sufficient to suppress PTH. […] Only one patient receiving DP001 (2MD) had two consecutive corrected serum calcium values>10.5 mg/dL.

Data set [5] relates to PTH. Put plainly: Phase 2A open-label dose-ranging study of DP001 in hemodialysis patients. Conditions: dialysis patients, orally 3 times weekly for 4 weeks. It counts as in vivo, human. On the procedure: FIG. 1. Change in plasma iPTH (%) versus concentration of DP001 (2MD). Chronic kidney disease—stage 5 patients were given DP001 at the indicated dose orally 3 times weekly for 4 weeks. Data are presented as mean±SEM. Plasma iPTH levels were measured using the Immulite Intact iPTH Assay from Siemens Healthcare Diagnostics.
FIG. 2. Safety parameter versus concentration of DP001 (2MD) for patients of FIG. 1. Data are presented as mean (standard deviation (SD)).
A Phase 2A, open-label, dose-ranging study of DP001 in hemodialysis patients was conducted to determine a starting dose of DP001 for the Phase 2B, randomized, placebo-controlled study described in this Example. […] (See FIGS. 1 and 2). Based on the results in FIGS. 1 and 2, an efficacious and safe starting dose of 440 ng was chosen. Data are presented as mean±SEM. Plasma iPTH levels were measured using the Immulite Intact iPTH Assay from Siemens Healthcare Diagnostics.

The subject of data set [6] is PTH. Kind of data set: Phase 2B double-blind, randomized, placebo-controlled study in hemodialysis patients: efficacy (serum iPTH). It counts as in vivo, human. On the procedure: FIG. 3. Study schema for study participants. Participants discontinued use of the active vitamin D analogue (AVD) and cinacalcet (if applicable) prior to a washout period and subsequent administration of placebo or DP001 (440 ng, 3×/wk, for up to 12 weeks).
FIG. 6. Percentage of subjects achieving primary endpoint of two consecutive ≧30% decrease from his/her averaged baseline iPHT level during the 12-week treatment period. Pre-dialysis serum iPTH levels were measured using the Access Intact iPTH Assay from Beckman Coulter (p<0.0001, Fisher's exact test).
FIG. 7. Secondary efficacy endpoint as measured as the mean percentage change in serum iPTH from the averaged baseline value to the average of the last 2 on-treatment values. Data are presented as mean±SEM. p<0.0001, One-way ANOVA.
as §1
The Primary Efficacy Endpoint was the proportion of subjects who achieved two consecutive ≧30% decrease from his/her Averaged Baseline iPTH level during the 12-week treatment period. (See FIG. 6). Pre-dialysis serum iPTH levels were measured using the Access Intact iPTH Assay from Beckman Coulter (p<0.0001, Fisher's exact test).
The secondary efficacy endpoint was the mean percentage change in serum iPTH from the Averaged Baseline value to the average of the last 2 on-treatment values. Data are presented in FIG. 7 as mean±SEM. p<0.0001, One-way ANOVA.

For data set [7], the system named is MRL/lpr mouse model of systemic lupus erythematosus. To be noted: cited from earlier work.

This is an account of results in patent publication US9814736B2, “Use of 2-methylene-19-nor-(20S)-1α,25-dihydroxyvitamin D3 and calcimimetics to treat secondary hyperparathyroidism” (Wisconsin Alumni Research Foundation, priority 2014, dated 2017).

Entries after “also recorded” stand apart in the source; their conditions may differ. Read-outs that look alike come from different tables or passages of the source.

As for `C=C1/C(=C\C=C2/CCC[C@]3(C)C([C@H](C)CC#CC(C)(C)O)=CC[C@@H]23)C[C@@H](O)C[C@@H]1O` [1,25-(OH)2-16-ene-23-yne-D3], in data set [1], the “suppression of PTH secretion relative to calcitriol” value was “nearly as effective as calcitriol”.

For `C=C1C(=CC=C2CCCC3(C)C2CCC3C(C)CCCCCC(C)(C)O)CC(O)CC1O` (stereo not shown) [1,25-(OH)2-24-dihomo-D3], the “suppression of PTH secretion relative to calcitriol” value in data set [1] is given as “nearly as effective as calcitriol”.

As for `C=C1C(=CC=C2CCCC3(C)C2CCC3C(C)C=CCCCCC(C)(C)O)CC(O)CC1O` (stereo not shown) [1,25-(OH)2-24-trihomo-22-ene-D3], the “suppression of PTH secretion relative to calcitriol” value in data set [1] is listed as “nearly as effective as calcitriol”.

For the compound `C=C1/C(=C\C=C2/CCC[C@]3(C)[C@@H]([C@H](C)OCCC(C)(C)O)CC[C@@H]23)C[C@@H](O)C[C@@H]1O` [22-oxacalcitriol], the “suppression of serum PTH” value in data set [2] and in data set [3] was “suppress serum PTH” in each case. In data set [1], the “suppression of PTH secretion relative to calcitriol” value is reported as “nearly as effective as calcitriol”.

For the compound `C=C1[C@H](O)CC(=C/C=C2\CCC[C@@]3(C)C2CCC3[C@@H](C)CCCC(C)(C)O)C[C@H]1O` (stereo partly drawn) [DP001, 2-methylene-19-nor-(20S)-1α,25-dihydroxyvitamin D3], the serum calcium values entry in data set [4] (12-week treatment) is “remained in the normal range”. In addition, the “patients with two consecutive corrected serum calcium values >10.5 mg/dL” value in data set [4] (34 enrollees on DP001) is on record as “one”. Moreover, in data set [4] (34 enrollees on DP001, 440 ng 3x/wk up to 12 weeks), the “subjects that reached the safety threshold for PTH” value was 14 subjects. Further, in data set [4] (between treatment groups), the “adverse event reporting versus placebo” value is given as “no significant differences in adverse event reporting between treatment groups”. For the same compound, in data set [4] (both had high serum phosphorus at baseline), the “patients surpassing corrected-serum calcium and phosphorus product safety threshold” value is listed as “two”. Moreover, in data set [4] (judged by investigators), the “serious adverse events (SAEs) related to drug” value was “No serious adverse events (SAEs) were judged by the investigators to be related to DP001”. Also, in data set [5], the “change in serum calcium” value is on record as “without changing serum calcium” and the “suppression of PTH (plasma iPTH)” value is on record as “suppresses PTH in dialysis patients in a dose-dependent fashion”. Moreover, the “subjects achieving primary endpoint (two consecutive ≧30% decrease from averaged baseline iPTH)” value in data set [6] (CKD-5D, 3x weekly oral, starting dose 440 ng, 12-week treatment, p<0.0001) was 78 % of subjects. The “reduction of serum iPTH (secondary endpoint: mean percentage change from averaged baseline)” value in data set [6] (CKD-5D, 3x weekly oral, starting dose 440 ng, by 12 weeks, p<0.0001) is listed as 46%. Further, the “PTH lowering in subjects previously treated with AVD and cinacalcet (calcimimetic)” value in data set [6] (DP001 alone, CKD-5D patients previously on cinacalcet) is on record as “effectively reduced PTH levels; also recorded: successfully treats SHPT in patients previously taking a calcimimetic”.

Take `C=C1/C(=C\C=C2/CCC[C@]3(C)[C@@H]([C@H](C)CCCC(C)(C)O)CC[C@@H]23)C[C@@H](O)C[C@@H]1O` [calcitriol, 1α,25-(OH)2D3]: the hypercalcemia entry in data set [7] (accompanying calcitriol treatment) is “severe hypercalcemia always accompanied this treatment”. The proteinuria result in data set [7] (calcitriol administered through the diet) is listed as “completely prevents proteinuria”.
